From ChEMBL document CHEMBL1909046, “DrugMatrix in vitro pharmacology data”

Assays:
[1] = DRUGMATRIX: Sodium/nucleoside co-transporter radioligand binding (ligand: nitrobenzylthioinosine); type: cell membranes, Cavia porcellus, Dunkin-Hartley, Cerebral cortex, Membrane; settings: Not Active = under 50% inhibition at 10 µM
Thromboxane-A synthase = target: T1, Thromboxane-A synthase (Homo sapiens, UniProt P24557); assay: biochemical; type: tissue-based, Platelet; settings: platelet;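 further: enzyme inhibition assay with PGH2 supplied as substrate; in other assays of this panel Not Active means under 50% inhibition at 10 µM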
T1 sequence (P24557 whole entry): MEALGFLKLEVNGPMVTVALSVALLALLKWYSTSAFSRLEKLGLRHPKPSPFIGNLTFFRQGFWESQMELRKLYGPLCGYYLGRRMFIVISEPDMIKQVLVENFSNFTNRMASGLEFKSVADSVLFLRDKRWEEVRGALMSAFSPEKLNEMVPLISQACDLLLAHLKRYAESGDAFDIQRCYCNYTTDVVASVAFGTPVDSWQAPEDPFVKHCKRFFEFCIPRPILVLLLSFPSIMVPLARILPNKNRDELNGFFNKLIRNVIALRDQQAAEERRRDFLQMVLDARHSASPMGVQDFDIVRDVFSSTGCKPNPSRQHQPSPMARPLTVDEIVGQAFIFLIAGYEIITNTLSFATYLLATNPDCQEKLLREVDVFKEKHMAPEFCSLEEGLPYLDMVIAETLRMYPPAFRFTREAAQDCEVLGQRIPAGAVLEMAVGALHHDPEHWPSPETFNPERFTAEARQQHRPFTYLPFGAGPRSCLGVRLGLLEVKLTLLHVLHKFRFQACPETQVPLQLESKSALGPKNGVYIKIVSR

[2] = target: C-C chemokine receptor type 5 (Homo sapiens, UniProt P51681); type: cell membranes, Membrane; settings: hek293; further: in other assays of this panel Not Active means under 50% inhibition at 10 µM
D(3) dopamine receptor = D(3) dopamine receptor (Homo sapiens, UniProt P35462); assay: DRUGMATRIX: Dopamine D3 radioligand binding (ligand: [3H] Spiperone); type: cell membranes, CHO, Membrane; settings: cho
[3] = target: Sodium-dependent dopamine transporter (Homo sapiens, UniProt Q01959); assay: DRUGMATRIX: Dopamine Transporter radioligand binding (ligand: [125I] RTI-55); type: cell membranes, CHO-K1, Membrane; settings: cho-k1; Not Active = under 50% inhibition at 10 µM
[4] = DRUGMATRIX: Glutamate, AMPA radioligand binding (ligand: [3H] AMPA); type: cell membranes, Rattus norvegicus, Wistar, Cerebral cortex, Membrane; settings: Not Active = under 50% inhibition at 10 µM
Melanocortin receptor 4 = Melanocortin receptor 4 (Homo sapiens, UniProt P32245); type: cell membranes, Membrane; settings: hek293; further: in other assays of this panel Not Active means under 50% inhibition at 10 µM
[5] = target: T2, Muscarinic acetylcholine receptor M4 (Homo sapiens, UniProt P08173); type: cell membranes, CHO-K1, Membrane; settings: cho-k1; further: in other assays of this panel Not Active means under 50% inhibition at 10 µM
T2 sequence (P08173 whole entry): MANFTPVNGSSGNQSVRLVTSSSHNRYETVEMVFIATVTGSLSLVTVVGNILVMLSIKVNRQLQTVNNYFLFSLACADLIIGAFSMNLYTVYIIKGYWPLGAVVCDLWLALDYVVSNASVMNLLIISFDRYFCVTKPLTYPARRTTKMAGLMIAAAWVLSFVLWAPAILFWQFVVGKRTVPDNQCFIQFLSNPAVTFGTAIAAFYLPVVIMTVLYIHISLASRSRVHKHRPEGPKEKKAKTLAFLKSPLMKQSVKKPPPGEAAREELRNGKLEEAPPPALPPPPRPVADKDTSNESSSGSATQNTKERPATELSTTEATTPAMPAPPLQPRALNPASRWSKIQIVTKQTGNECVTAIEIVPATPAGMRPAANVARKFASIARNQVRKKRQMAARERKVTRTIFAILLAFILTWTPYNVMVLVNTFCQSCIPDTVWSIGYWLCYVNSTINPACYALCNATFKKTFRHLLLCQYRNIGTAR

[6] = DRUGMATRIX: Platelet-Derived Growth Factor (PDGF) radioligand binding (ligand: [125I] PDGF); type: cell-based; settings: nih3t3; Not Active = under 50% inhibition at 10 µM
[7] = DRUGMATRIX: Purinergic P2X radioligand binding (ligand: [3H] alpha, beta-Methylene-ATP); type: cell membranes, Oryctolagus cuniculus, New Zealand albino, Urinary bladder, Membrane; settings: Not Active = under 50% inhibition at 10 µM
Adenosine receptor A2a = Adenosine receptor A2a (Homo sapiens, UniProt P29274); assay: DRUGMATRIX: Adenosine A2A radioligand binding (ligand: […]); type: cell membranes, HEK293, Membrane; settings: hek293; Not Active = under 50% inhibition at 10 µM
Cytochrome P450 2D6 = Cytochrome P450 2D6 (Homo sapiens, UniProt P10635); settings: bti-tn-5b1-4; further: in other assays of this panel Not Active means under 50% inhibition at 10 µM
Estrogen receptor beta = Estrogen receptor beta (Homo sapiens, UniProt Q92731); settings: sf9; further: in other assays of this panel Not Active means under 50% inhibition at 10 µM
Glucocorticoid receptor = target: T3, Glucocorticoid receptor (Homo sapiens, UniProt P04150); settings: hela s3; further: in other assays of this panel Not Active means under 50% inhibition at 10 µM
T3 sequence (P04150 whole entry): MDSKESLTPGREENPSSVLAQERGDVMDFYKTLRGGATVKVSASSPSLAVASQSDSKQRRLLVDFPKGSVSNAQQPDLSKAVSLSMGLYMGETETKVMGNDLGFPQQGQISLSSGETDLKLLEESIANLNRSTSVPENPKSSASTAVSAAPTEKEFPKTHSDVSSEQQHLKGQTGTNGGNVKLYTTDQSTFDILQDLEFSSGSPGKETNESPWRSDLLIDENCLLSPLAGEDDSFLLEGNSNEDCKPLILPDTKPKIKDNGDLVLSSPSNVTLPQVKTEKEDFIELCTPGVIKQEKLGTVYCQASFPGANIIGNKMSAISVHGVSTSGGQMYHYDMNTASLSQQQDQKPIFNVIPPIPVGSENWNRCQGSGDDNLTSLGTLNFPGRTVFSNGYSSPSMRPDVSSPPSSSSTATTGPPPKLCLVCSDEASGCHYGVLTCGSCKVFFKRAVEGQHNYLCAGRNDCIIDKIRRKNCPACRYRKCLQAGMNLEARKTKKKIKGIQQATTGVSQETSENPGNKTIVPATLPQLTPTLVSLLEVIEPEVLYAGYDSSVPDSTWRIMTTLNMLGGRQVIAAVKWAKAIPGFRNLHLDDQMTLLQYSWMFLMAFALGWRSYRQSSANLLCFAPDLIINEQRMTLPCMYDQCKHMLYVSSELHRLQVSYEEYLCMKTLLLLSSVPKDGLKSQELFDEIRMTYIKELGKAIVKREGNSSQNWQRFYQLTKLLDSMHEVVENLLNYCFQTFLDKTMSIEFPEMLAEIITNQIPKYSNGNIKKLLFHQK

Sodium-dependent dopamine transporter, sequence (Q01959 whole entry): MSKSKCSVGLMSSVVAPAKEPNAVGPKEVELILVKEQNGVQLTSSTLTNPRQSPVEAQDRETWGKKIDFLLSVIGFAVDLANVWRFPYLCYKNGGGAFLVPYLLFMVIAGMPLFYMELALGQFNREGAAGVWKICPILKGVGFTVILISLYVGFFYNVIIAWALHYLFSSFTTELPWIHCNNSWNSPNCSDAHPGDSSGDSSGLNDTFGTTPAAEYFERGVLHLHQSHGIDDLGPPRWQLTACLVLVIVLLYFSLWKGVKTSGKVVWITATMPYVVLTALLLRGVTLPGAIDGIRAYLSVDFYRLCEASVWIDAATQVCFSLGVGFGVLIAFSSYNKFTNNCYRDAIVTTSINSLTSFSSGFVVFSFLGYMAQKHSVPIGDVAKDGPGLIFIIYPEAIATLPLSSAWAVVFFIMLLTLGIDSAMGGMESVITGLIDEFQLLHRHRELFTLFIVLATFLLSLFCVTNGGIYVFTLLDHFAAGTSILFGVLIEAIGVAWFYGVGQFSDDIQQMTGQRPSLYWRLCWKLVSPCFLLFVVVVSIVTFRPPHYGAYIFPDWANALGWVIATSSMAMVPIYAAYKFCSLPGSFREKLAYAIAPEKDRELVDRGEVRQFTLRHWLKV
D(3) dopamine receptor, sequence (P35462 whole entry): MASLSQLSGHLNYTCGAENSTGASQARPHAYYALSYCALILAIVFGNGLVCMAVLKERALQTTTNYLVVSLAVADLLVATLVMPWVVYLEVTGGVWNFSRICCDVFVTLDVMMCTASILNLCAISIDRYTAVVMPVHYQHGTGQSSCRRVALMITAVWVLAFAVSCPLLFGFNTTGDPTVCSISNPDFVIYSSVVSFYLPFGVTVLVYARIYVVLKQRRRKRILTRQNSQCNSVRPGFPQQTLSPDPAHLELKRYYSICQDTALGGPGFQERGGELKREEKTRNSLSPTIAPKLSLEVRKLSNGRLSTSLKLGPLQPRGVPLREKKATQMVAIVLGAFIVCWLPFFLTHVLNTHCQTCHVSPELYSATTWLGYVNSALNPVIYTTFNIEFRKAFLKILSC
Estrogen receptor beta, sequence (Q92731 whole entry): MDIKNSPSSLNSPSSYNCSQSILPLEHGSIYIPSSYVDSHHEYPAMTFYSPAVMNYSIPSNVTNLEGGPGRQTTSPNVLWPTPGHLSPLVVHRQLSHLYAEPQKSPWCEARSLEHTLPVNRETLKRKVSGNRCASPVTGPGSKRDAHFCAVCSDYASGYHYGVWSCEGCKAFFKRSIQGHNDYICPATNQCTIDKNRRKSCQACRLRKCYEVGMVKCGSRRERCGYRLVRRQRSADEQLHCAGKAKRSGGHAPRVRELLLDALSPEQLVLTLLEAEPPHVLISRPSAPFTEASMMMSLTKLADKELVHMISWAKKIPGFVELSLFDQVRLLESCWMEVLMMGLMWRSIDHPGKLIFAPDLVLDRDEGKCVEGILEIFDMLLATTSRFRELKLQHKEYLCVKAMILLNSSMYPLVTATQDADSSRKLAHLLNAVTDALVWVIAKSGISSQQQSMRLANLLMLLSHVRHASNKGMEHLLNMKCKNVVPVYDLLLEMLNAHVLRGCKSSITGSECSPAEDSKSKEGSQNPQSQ
Cytochrome P450 2D6, sequence (P10635 whole entry): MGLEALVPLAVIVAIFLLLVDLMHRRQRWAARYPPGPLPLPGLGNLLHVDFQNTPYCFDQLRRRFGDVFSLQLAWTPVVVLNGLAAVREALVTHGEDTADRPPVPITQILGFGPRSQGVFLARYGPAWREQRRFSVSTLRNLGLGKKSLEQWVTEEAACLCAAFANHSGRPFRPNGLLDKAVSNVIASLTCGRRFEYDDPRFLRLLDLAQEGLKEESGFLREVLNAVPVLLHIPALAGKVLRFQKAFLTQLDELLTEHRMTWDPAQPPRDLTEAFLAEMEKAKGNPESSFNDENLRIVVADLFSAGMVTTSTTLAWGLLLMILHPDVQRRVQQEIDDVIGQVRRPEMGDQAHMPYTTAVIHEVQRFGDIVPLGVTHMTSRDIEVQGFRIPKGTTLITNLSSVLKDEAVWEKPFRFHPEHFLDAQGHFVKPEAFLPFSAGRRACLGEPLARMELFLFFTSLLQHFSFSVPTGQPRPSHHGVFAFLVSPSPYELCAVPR
Melanocortin receptor 4, sequence (P32245 whole entry): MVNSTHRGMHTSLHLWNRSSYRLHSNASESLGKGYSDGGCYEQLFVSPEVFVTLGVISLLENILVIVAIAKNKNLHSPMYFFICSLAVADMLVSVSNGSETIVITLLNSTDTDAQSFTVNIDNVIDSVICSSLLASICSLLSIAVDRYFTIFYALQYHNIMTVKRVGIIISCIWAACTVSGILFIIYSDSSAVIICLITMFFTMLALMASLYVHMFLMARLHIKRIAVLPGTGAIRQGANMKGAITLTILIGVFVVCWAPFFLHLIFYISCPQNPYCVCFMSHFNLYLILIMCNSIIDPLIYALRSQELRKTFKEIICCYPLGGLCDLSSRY
Adenosine receptor A2a, sequence (P29274 whole entry): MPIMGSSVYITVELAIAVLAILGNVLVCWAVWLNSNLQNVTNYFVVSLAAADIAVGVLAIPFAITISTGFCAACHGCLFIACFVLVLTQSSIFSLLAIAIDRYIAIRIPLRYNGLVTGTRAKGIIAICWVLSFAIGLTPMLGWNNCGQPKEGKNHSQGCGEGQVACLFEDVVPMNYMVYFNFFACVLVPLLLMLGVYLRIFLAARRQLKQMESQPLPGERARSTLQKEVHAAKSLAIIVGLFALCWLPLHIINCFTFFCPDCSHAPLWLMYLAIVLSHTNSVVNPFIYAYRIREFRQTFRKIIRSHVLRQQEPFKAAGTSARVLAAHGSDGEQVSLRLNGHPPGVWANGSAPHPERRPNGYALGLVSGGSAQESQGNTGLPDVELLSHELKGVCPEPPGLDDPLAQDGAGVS
C-C chemokine receptor type 5, sequence (P51681 whole entry): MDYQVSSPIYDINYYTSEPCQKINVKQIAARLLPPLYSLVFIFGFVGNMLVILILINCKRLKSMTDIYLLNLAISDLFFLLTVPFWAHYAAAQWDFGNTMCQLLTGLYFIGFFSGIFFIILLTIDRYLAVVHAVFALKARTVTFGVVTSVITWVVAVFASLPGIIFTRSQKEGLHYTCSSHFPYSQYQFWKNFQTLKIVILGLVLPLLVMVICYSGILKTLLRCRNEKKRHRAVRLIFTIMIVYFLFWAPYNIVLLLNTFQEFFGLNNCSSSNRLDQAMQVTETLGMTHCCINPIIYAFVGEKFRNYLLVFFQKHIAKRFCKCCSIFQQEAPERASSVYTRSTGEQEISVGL

Brc1ccccc1 [BROMOBENZENE]
Not Active: IC50 [1] | Ki [1] | IC50 (Thromboxane-A synthase) | IC50 [2] | IC50 (D(3) dopamine receptor) | IC50 [3] | IC50 [4] | Ki [4] | IC50 (Melanocortin receptor 4) | IC50 [5] | IC50 [6] | Ki [6] | IC50 [7] | Ki [7] | IC50 (Adenosine receptor A2a) | IC50 (Cytochrome P450 2D6) | Ki (Cytochrome P450 2D6) | IC50 (Estrogen receptor beta) | IC50 (Glucocorticoid receptor)

CC(=O)CCCCn1c(=O)c2c(ncn2C)n(C)c1=O [PENTOXIFYLLINE]
Not Active: IC50 [1] | Ki [1] | IC50 (Thromboxane-A synthase) | IC50 [2] | IC50 (D(3) dopamine receptor) | IC50 [3] | IC50 [4] | Ki [4] | IC50 (Melanocortin receptor 4) | IC50 [5] | IC50 [6] | Ki [6] | IC50 [7] | Ki [7] | IC50 (Adenosine receptor A2a) | IC50 (Cytochrome P450 2D6) | Ki (Cytochrome P450 2D6) | IC50 (Estrogen receptor beta) | IC50 (Glucocorticoid receptor)

Cc1c(-c2ccccc2)oc2c(C(=O)OCCN3CCCCC3)cccc2c1=O [FLAVOXATE]
Not Active: IC50 [1] | Ki [1] | IC50 (Thromboxane-A synthase) | IC50 [2] | IC50 (D(3) dopamine receptor) | IC50 [3] | IC50 [4] | Ki [4] | IC50 (Melanocortin receptor 4) | IC50 [5] | IC50 [6] | Ki [6] | IC50 [7] | Ki [7] | IC50 (Adenosine receptor A2a) | IC50 (Cytochrome P450 2D6) | Ki (Cytochrome P450 2D6) | IC50 (Estrogen receptor beta) | IC50 (Glucocorticoid receptor)

C/C=C1\[C@H]2C=C(C)C[C@]1(N)c1ccc(=O)[nH]c1C2 [HUPERZINE A]
Not Active: IC50 [1] | Ki [1] | IC50 (Thromboxane-A synthase) | IC50 [2] | IC50 (D(3) dopamine receptor) | IC50 [3] | IC50 [4] | Ki [4] | IC50 (Melanocortin receptor 4) | IC50 [5] | IC50 [6] | Ki [6] | IC50 [7] | Ki [7] | IC50 (Adenosine receptor A2a) | IC50 (Cytochrome P450 2D6) | Ki (Cytochrome P450 2D6) | IC50 (Estrogen receptor beta) | IC50 (Glucocorticoid receptor)
